{"source": "paper PMC8006935", "about": "“Study of Combinatorial Drug Synergy of Novel Acridone Derivatives With Temozolomide Using in-silico and in-vitro Methods in the Treatment of Drug-Resistant Glioma” (Frontiers in Oncology, 2021)", "key": {"[1]": {"test_system": "U-87 (Uppsala 87) Glioma cell lines", "test": "Sulforhodamine B assay, U-87 drug sensitive Glioma cells", "type": "cell-based", "conditions": "for U-87/WT SI: SI = CC50 of Vero cell line /IC50 of Cancer cell line after 72 h; for IC50: 72 h, SRB, Mean ± Standard Deviations in Table 4, read-out: U-87/WT IC50", "description": "(§1) In order to test the growth inhibition potential of the TMZ and Acridone derivatives on Glioma, the U-87 (Uppsala 87) Glioma cell lines and T-98 (Temozolomide resistant) Glioma cell lines were treated with Temozolomide (TMZ) and Acridone derivatives AC2, AC7, and AC26. The African Green Monkey Kidney Vero cell lines were used as control for the study. The Vero cell lines were obtained from the National Center for Cell Sciences (NCCS), Pune, while the U-87 and T-98 cell lines were carried in the lab of Dr. GJ Peters, Cancer Center Amsterdam (CCA), VU University Medical Center, Amsterdam, Netherlands. The Mycoplasma testing was done by using the Universal Mycoplasma Detection Kit (ATCC® 30-1012K™) every 6 months. The Vero cell lines have been used as control as they are normal kidney epithelial cells and are non-cancerous in nature. The Vero cell lines have been routinely used for testing cytotoxicity of small molecules by various researchers ([22], [23]). Also, in our previous study, Vero cell lines have been used for testing safety and efficacy of Acridone derivatives for Lung, Cervical, and Breast Cancer studies ([13]).\n(§2) Cell viability was found using the Sulforhodamine B (SRB) assay to measure the cellular protein content which provides better sensitivity in comparison to MTT assay ([24]). Moreover, as this method is dependent on the property of the SRB dye, it acts by binding to proteins under slightly acidic conditions and can be exposed to basic conditions for its extraction. The resulting amount of bound dye is then utilized as a proxy for cell mass ([25]). This cell mass can then be extrapolated to measure cell growth.\n(§3) Glioma cells were cultured in Gibco (RPMI 1640) complemented with 10% fetal calf serum (Gibco). The cultures were then treated with trypsin-EDTA in order to detach/separate the cells from their culture flasks. The quickly proliferating cells were harvested, counted and plated at suitable concentrations in 96-well microplates. These microplates were subsequently incubated for 24 h. After incubation, drug compounds were dissolved in the culture media and placed in 96 well plates in triplicates, which were again incubated at 37°C under 5% CO2 for 72 h. 72 h later, the plates were removed and the cells were treated with cold Trichloroacetic acid (TCA) to fix the cultures and. 0.4% of SRB dissolved in 1% acetic acid was then added to the culture in order to stain the cells. Next, the bound stain was dissolved in 150 μl of 10 mM unbuffered Tris base left on a gyrator shaker. Thereafter, absorbance of the solution was measured at 540 nm utilizing a microplate reader. Absorbance readings (triplicate values) recorded were used to calculate percentage growth inhibition due to the effect of drugs using the following equations.\n(§4) % Cell growth = Absorbance sample/Absorbance of control or untreated × 100\n(§5) % Growth inhibition = 100 - % cell growth\n(§6) The IC50 was calculated based on the log graph sheet which was developed in-house at the CCA, VU University Medical Center.\n(§7) Selectivity Index (SI) is a ratio that measures the window between cytotoxicity and anticancer activity of the drugs ([26]). […] Here, IC50 is the inhibition concentration for inhibiting 50% of cancer cells and CC50 is cytotoxic concentration causing death of 50% viable cells in the host."}, "[2]": {"design": "method as in PMID 21565270", "conditions": "cited from earlier work"}, "[3]": {"conditions": "earlier studies, no reference given; cited from earlier work"}, "[4]": {"test_system": "T-98 (Temozolomide resistant) Glioma cell lines", "test": "Sulforhodamine B assay, T-98 TMZ resistant Glioma cells", "type": "cell-based", "conditions": "for IC50: Glioma cell; for T-98/TMZRES SI: SI = CC50 of Vero cell line /IC50 of Cancer cell line after 72 h", "description": "as §1, §2, §3, §4, §5, §6, §7"}, "[5]": {"test": "Sulforhodamine B assay, Vero control cells", "type": "cell-based", "conditions": "African green monkey, Vero cells (normal kidney epithelial cells), SRB, read-out: Vero cell Line CC50", "description": "as §1, §2\nas §3, with “0.4% of SRB dissolved in 1% acetic acid was then added to the culture in order to stain the cells. Next, the bound stain was dissolved in 150 μl of 10 mM unbuffered Tris base left on a gyrator shaker.” left out\n% Cell growth = Absorbance sample/Absorbance of control or untreated × 100 […]\nThe IC50 was calculated based on the log graph sheet which was developed in-house at the CCA, VU University Medical Center. […]"}, "[6]": {"test_system": "Drug resistant cancer cells (CR), T-98", "test": "Mathematical tumor growth model simulation and Bliss synergy, drug resistant cancer cells"}, "[7]": {"test": "pKa by UV-Vis spectrophotometer", "type": "physicochemical", "description": "Characterization of acridone derivatives AC2, AC7, and AC26 were carried out by using all the chemicals of analytical grade. Hydrochloric acid and sodium hydroxide were procured from Sisco Research Lab Pvt. Ltd (Mumbai, India). Potassium dihydrogen orthophosphate, methanol and ortho-phosphoric acid (85% pure) was received from Loba Chemie Pvt. Ltd. (Mumbai, India). Sodium chloride was received from SD Fine-Chem Limited (Mumbai, India). Milli-pore water was used throughout the study. Chemical information like the molecular weight of compounds was determined by obtaining ESI-MS spectroscopy using methanol as solvent. pH calculated by using pH analyzer (Lab India) and PKa determined by using UV-Vis spectrophotometer (Shimadzu, Japan). Melting point was calculated by Digital Melting point apparatus (Veego India). Lipophilicity was determined by using software like Chem Draw 15 and ALGOPS 2.1 ([16]). In order to determine the Blood Brain Barrier (BBB) permeability of the compounds, we have used Online BBB Predictor (https://www.cbligand.org/BBB/predictor.php) using SVM Machine Learning algorithm and PubChem as the fingerprint ([17])."}, "[8]": {"conditions": "72 h, SRB, Mean ± Standard Deviations in Table 4, read-out: T-98/TMZRES IC50"}, "[9]": {"conditions": "drug administered individually, drug resistant cells, read-out: Initial IC50"}}, "note": "Read-outs that look alike come from different tables or passages of the source.", "data": [{"smiles": "O=C(NN=CC=Cc1ccccc1)c1cccc2c(=O)c3ccccc3[nH]c12", "note": "[AC2, 9-oxo-N'-(3-phenylallylidene)-9,10-dihydroacridine-4-carbohydrazide]", "values": [{"measurement": "U-87/WT SI", "setting": "[1]", "result": 36.73}, {"measurement": "IC50", "setting": "[1]; U87WT", "result": "1530 ± 850", "unit": "nM"}, {"measurement": "cytotoxicity in comparison to the other acridone derivatives", "setting": "[2]", "result": 100, "unit": "times"}, {"measurement": "cardiotoxicity, nephrotoxicity and necrosis", "setting": "[3]", "result": "no cardiotoxicity, nephrotoxicity and necrosis"}, {"measurement": "liver histopathology", "setting": "[3]", "result": "minimal hyperchromatic, anaplasia, and cellular infiltration"}, {"measurement": "IC50", "setting": "[4]; [8]", "result": "1530 ± 250", "unit": "nM"}, {"measurement": "IC50", "setting": "[4]; [9]", "result": 1530, "unit": "nM"}, {"measurement": "T-98/TMZRES SI", "setting": "[4]", "result": 36.73}, {"measurement": "CC50 at 72 h", "setting": "[5]", "result": 56200, "unit": "nM"}, {"measurement": "% fold change [(final-initial)/initial]*100", "setting": "[6]; combination TMZ + AC2", "result": 3.26, "unit": "%"}, {"measurement": "Fold change = final IC50/initial IC50", "setting": "[6]; combination TMZ + AC2", "result": 0.96}, {"measurement": "pKa", "setting": "[7]", "result": 8.03}]}, {"smiles": "O=C(NN=Cc1ccccc1Cl)c1cccc2c(=O)c3ccccc3[nH]c12", "note": "[AC7, N'-(2-chlorobenzylidene)-9-oxo-9,10-dihydroacridine-4-carbohydrazide]", "values": [{"measurement": "U-87/WT SI", "setting": "[1]", "result": 8.49}, {"measurement": "IC50", "setting": "[1]; U87WT", "result": "5670 ± 580", "unit": "nM"}, {"measurement": "cytotoxicity in comparison to the other acridone derivatives", "setting": "[2]", "result": 100, "unit": "times"}, {"measurement": "cardiotoxicity, nephrotoxicity and necrosis", "setting": "[3]", "result": "no cardiotoxicity, nephrotoxicity and necrosis"}, {"measurement": "liver histopathology", "setting": "[3]", "result": "minimal hyperchromatic, anaplasia, and cellular infiltration"}, {"measurement": "IC50", "setting": "[4]; [8]", "result": "1050 ± 180", "unit": "nM"}, {"measurement": "IC50", "setting": "[4]; [9]", "result": 1050, "unit": "nM"}, {"measurement": "T-98/TMZRES SI", "setting": "[4]", "result": 45.87}, {"measurement": "CC50 at 72 h", "setting": "[5]", "result": 48200, "unit": "nM"}, {"measurement": "% fold change [(final-initial)/initial]*100", "setting": "[6]; combination TMZ + AC7", "result": 8.5, "unit": "%"}, {"measurement": "Fold change = final IC50/initial IC50", "setting": "[6]; combination TMZ + AC7", "result": 0.91}, {"measurement": "pKa", "setting": "[7]", "result": 9.23}]}, {"smiles": "CC(=NNC(=O)c1cccc2c(=O)c3ccccc3[nH]c12)c1ccccc1O", "note": "[AC26, N'(1-(2-hydroxyphenyl)ethylidene)-9-oxo-9,10-dihydroacridine-4-carbohydrazide]", "values": [{"measurement": "IC50", "setting": "[1]; listed as Acridone 26", "result": 1000, "unit": "nM"}, {"measurement": "U-87/WT SI", "setting": "[1]", "result": 73.42}, {"measurement": "IC50", "setting": "[1]; U87WT", "result": "900 ± 100", "unit": "nM"}, {"measurement": "cytotoxicity in comparison to the other acridone derivatives", "setting": "[2]", "result": 100, "unit": "times"}, {"measurement": "cardiotoxicity, nephrotoxicity and necrosis", "setting": "[3]", "result": "no cardiotoxicity, nephrotoxicity and necrosis"}, {"measurement": "liver histopathology", "setting": "[3]", "result": "minimal hyperchromatic, anaplasia, and cellular infiltration"}, {"measurement": "IC50", "setting": "[4]; [8]", "result": "760 ± 53", "unit": "nM"}, {"measurement": "IC50", "setting": "[4]; [9]", "result": 760, "unit": "nM"}, {"measurement": "T-98/TMZRES SI", "setting": "[4]", "result": 86.94}, {"measurement": "CC50 at 72 h", "setting": "[5]", "result": 66100, "unit": "nM"}, {"measurement": "Fold change = final IC50/initial IC50", "setting": "[6]; combination TMZ + AC26", "result": 0.88}, {"measurement": "pKa", "setting": "[7]", "result": 6.52}]}]}
